Results from patent publication US20060148020A1, “Inhibitors of gst a3-3 and gst a1-1 for the treatment of cancer” (priority 2002, published 2006).
Like-named read-outs stand apart in the source and are kept apart here.

Legend:
GST A1-1 [1] = target: T1, GST A1-1 (Homo sapiens, UniProt P08263); settings: read-out: IC50 Values GST A1-1
T1 sequence (P08263 1-222): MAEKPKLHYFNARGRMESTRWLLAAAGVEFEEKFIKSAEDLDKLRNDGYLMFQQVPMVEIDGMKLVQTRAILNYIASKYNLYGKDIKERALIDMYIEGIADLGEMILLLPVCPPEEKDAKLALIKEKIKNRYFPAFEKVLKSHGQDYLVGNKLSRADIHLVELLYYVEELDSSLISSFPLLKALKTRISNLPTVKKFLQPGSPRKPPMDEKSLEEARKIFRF

GST A3-3 [2] = target: T2, GST A3-3 (Homo sapiens, UniProt Q16772); settings: read-out: IC50 Values GST A3-3
T2 sequence (Q16772 1-222): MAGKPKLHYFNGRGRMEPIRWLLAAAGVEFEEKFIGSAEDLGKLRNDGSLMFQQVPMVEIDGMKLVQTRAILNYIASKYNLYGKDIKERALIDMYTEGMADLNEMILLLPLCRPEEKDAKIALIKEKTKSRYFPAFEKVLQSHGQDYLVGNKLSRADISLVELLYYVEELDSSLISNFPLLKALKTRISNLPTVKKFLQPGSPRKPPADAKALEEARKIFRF

GST A1-1 [3] = target: T1, GST A1-1; assay: biochemical
GST A2-2 [4] = target: T3, GST A2-2 (Homo sapiens, UniProt P09210); assay: biochemical
T3 sequence (P09210 1-222): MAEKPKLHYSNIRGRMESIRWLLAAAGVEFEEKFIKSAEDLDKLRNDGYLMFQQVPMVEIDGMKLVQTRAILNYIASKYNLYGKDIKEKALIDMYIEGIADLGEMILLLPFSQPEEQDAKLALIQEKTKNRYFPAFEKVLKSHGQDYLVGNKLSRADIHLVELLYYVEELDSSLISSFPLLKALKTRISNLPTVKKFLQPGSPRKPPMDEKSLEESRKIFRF

GST A3-3 [5] = target: T2, GST A3-3; assay: biochemical
GST A2-2 [6] = target: T3, GST A2-2; settings: read-out: IC50 Values GST A2-2

SMILES | IC50 (GST A1-1 [1]) | IC50 (GST A3-3 [2]) | IC50 (GST A1-1 [3]) | IC50 (GST A2-2 [4]) | IC50 (GST A3-3 [5]) | IC50 (GST A2-2 [6])
CC(=O)[O][Sn]([c]1ccccc1)([c]1ccccc1)[c]1ccccc1 [Ph3SnAc] | 160 nM | 160 nM |  |  |  | 
C[CH2][Ge]([Cl])([CH2]C)[CH2]C [Et3GeCl] |  |  | 56000 nM | 800 nM | 67000 nM | 
CCC[CH2][Sn]([CH2]CCC)([CH2]CCC)[O]C(C)=O [Bu3SnAc] | 18 nM | 18 nM |  |  |  | 410 nM
C[CH2][Pb]([Cl])([CH2]C)[CH2]C [Et3PbCl] |  |  | 2000 nM |  | 2300 nM | 
[Cl][Pb]([c]1ccccc1)([c]1ccccc1)[c]1ccccc1 [Ph3PbCl] |  |  | 4.6 nM | 84 nM | 13 nM | 
[Br][Pb]([c]1ccccc1)([c]1ccccc1)[c]1ccccc1 [Ph3PbBr] |  |  | 8.6 nM |  | 160 nM | 
